The values that follow come from US20190322676A1, “CERAMIDE GALACTOSYLTRANSFERASE INHIBITORS FOR THE TREATMENT OF DISEASE” (BioMarin Pharmaceutical Inc., priority 2016, published 2019).

Counter-ions that a name gives are not always drawn. A value given as a limit tells only on which side of the number the result lay.

For the test, the target named is T1, human CGT (ceramide galactosyltransferase), CHO/CGT lysate (Homo sapiens, UniProt Q16880).
T1 construct: Full-length human CGT cDNA was cloned into the BamH1/Xho1 site of pcDNA3.1 (+); expressed in transfected cells; host or cells: Chinese hamster ovary (CHO) cells; lysate prepared with M-PER
T1 sequence (Q16880 21-541): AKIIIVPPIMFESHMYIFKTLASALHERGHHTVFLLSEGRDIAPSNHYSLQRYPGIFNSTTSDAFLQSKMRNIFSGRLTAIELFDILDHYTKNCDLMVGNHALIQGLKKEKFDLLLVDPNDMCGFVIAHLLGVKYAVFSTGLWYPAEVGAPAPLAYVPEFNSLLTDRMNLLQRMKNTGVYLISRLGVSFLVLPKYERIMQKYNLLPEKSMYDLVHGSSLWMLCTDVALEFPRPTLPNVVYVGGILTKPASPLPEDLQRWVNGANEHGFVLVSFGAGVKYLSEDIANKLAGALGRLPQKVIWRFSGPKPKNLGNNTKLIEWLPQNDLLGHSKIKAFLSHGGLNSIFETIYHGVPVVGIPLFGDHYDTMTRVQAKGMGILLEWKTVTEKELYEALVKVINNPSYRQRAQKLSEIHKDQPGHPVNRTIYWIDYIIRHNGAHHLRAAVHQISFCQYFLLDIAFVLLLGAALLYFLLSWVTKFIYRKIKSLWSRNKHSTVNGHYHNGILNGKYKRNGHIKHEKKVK
The experiment in a line: CGT enzyme assay, RapidFire/MS/MS readout (Table 1 ranges with one asterisk *). Type of test: biochemical. Conditions: RapidFire method (range with one asterisk *). As to the method:
Full-length human CGT cDNA was cloned into the BamH1/Xho1 site of pcDNA3.1 (+) mammalian expression vector (V90-20, Invitrogen, Carlsbad, Calif.) and the plasmid was transfected into Chinese hamster ovary (CHO) cells. Lysate was prepared using M-PER (Mammalian Protein Extraction Reagent, ThermoFisher Scientific, Grand Island, N.Y.) in the presence of a protease inhibitor cocktail (P8340, Sigma, Saint Louis, Mo.). Each 100 mm dish (100% confluent, approximately 1×10^7 cells) was lysed with 250 μL of M-PER containing protease inhibitors. Protein concentration was determined using a Pierce BCA protein assay kit (ThermoFisher Scientific). Four micrograms of CHO/CGT lysate was incubated with various concentrations of a compound (0.001 μM-50 μM) in 10 mM HEPES (pH 7.2) containing 35 μM dioleoylphosphatidylcholine, 5 mM MgCl2, 5 mM MnCl2, 1% BSA, 15 mM KCl, 1 mM EGTA, 8 mM CHAPS, 10 μM C6-NBD-dihydro-ceramide and 17.5 μM UDP-galactose in a final reaction volume of 20 μL at 37° C. for 1 hour. The final concentration of DMSO was 0.5% in both compound-treated and mock-treated samples. Tween 80 (0.01%) was optionally added to the reaction mixture to help solubilize the compounds. Each individual reaction was diluted with 80 μL of methanol:acetronitrile (1:3) containing 5 μM N-docdecanoyl-NBD-galactosylceramide (internal standard) to stop the reaction. 200 μL H2O:acetonitile (1:1) was added to precipitate the protein. After sufficient mixing, the plates were centrifuged at 2469 g for 38 minutes, 200 μL of supernatant was transferred to a LC/MS 96-deep well plate and a second spin was performed at 2469 g for 10 minutes. The final supernatant was injected in triplicate for RapidFire/MS/MS analysis.
Quantitative Analysis Using the RapidFire/MS/MS Method:
The quantitative analysis of C6-NBD-dihydro-ceramide and C6-NBD-dihydro-galactosylceramide was performed on a Rapid Fire 360 high-throughput mass spectrometry system (Agilent Technologies, Palo Alto, Calif.) coupled with a API4000^+ triple quadrupole mass spectrometer (Applied Biosystems, Concord, Ontario, Canada). RapidFire software packages, including RapidFire Control panel, RapidFire UI and RapidFire Integrator (Agilent Technologies), were used to control the RapidFire instrument and to process data. Analyst 1.6.2 software packages (Applied Biosystems) were used to control the MS system and acquire MS data. […] of sample was loaded on a micro-scale C4 solid-phase extraction (SPE) cartridge (Agilent Technologies) and salts were removed using water supplemented with 0.1% formic acid at the flow rate of 1.5 mL/min for 3 sec. C6-NBD-dihydro-ceramide and C6-NBD-dihydro-galactosylceramide were co-eluted into the mass spectrometer using acetonitrile containing 0.1% formic acid at the flow rate of 1.0 mL/min for 3 sec. The total cycle time of one injection was 8 secs. The MS/MS detection was performed in ESI negative mode. The mass transition of C6-NBD-dihydro-galactosylceramide was m/z 752.6→678.6 using a −40 V collision energy, the mass transition of C6-NBD-dihydro-ceramide was m/z 590.6→115.8 using a −40 V collision energy and the mass transition of N-docdecanoyl-NBD-galactosylceramide was m/z 820.9→746.3 using a −45 V collision energy.
The C6-NBD-dihydro-galactosylceramide reading was normalized first by dividing the peak area of C6-NBD-dihydro-galactosylceramide by the peak area of the internal standard, N-docdecanoyl-NBD-galactosylceramide. IC50 values (see Table 1, where data ranges with one asterix (*) correspond to analysis using the RapidFire/MS/MS method, and data ranges with two asterixes (**) correspond to analysis using the RapidFire/MS/MS method with 0.01% Tween added) were generated from sigmoidal dose-response curves (variable slope) with GraphPad Prism software (GraphPad Software, Inc., San Diego, Calif.) using the normalized peak areas of C6-NBD-dihydro-galactosylceramide or the percent inhibition of C6-NBD-dihydro-galactosylceramide accumulation relative to DMSO control. […]
Regarding `COc1cc(C(F)(F)[C@@H](NS(=O)(=O)c2ccc3cc(OC4CCCC4)ccc3c2)C(=O)N2C3CCC2CC(N)C3)ccc1Cl` (single isomer, unassigned) [Compound 124-2], the IC50 (usually the point on the concentration scale where inhibition reaches its midpoint) is 1 to 10 µM. `NC1CC2CCC(C1)N2C(=O)[C@@H](NS(=O)(=O)c1ccc2cc(OC3CCCC3)ccc2c1)C(F)(F)c1ccc(Cl)cc1` (stereo partly drawn) [Compound 28-1, N-((2R)-3-(3-amino-8-azabicyclo[3.2.1]octan-8-yl)-1-(4-chlorophenyl)-1,1-difluoro-3-oxopropan-2-yl)-6-(cyclopentyloxy)naphthalene-2-sulfonamide trifluoroacetate] came in with an IC50 of less than 1 µM. Under `NC1CC2CCC(C1)N2C(=O)[C@H](NS(=O)(=O)c1ccc2cc(OC3CCCC3)ccc2c1)C(F)(F)c1ccc(Cl)cc1` (stereo partly drawn) [Compound 28-2, N-((2S)-3-(3-amino-8-azabicyclo[3.2.1]octan-8-yl)-1-(4-chlorophenyl)-1,1-difluoro-3-oxopropan-2-yl)-6-(cyclopentyloxy)naphthalene-2-sulfonamide trifluoroacetate] stands 1 to 10 µM.

As for `NC1CC2CCC(C1)N2C(=O)[C@@H](NS(=O)(=O)c1ccc(OCC2CCCCC2)cc1)C(F)(F)c1ccc(Cl)cc1` (stereo partly drawn) [Compound 29-1, N-((2R)-3-(3-amino-8-azabicyclo[3.2.1]octan-8-yl)-1-(4-chlorophenyl)-1,1-difluoro-3-oxopropan-2-yl)-4-(cyclohexylmethoxy)benzenesulfonamide trifluoroacetate], the half-inhibitory concentration (IC50) was less than 1 µM. `NC1CC2CCC(C1)N2C(=O)[C@H](NS(=O)(=O)c1ccc(OCC2CCCCC2)cc1)C(F)(F)c1ccc(Cl)cc1` (stereo partly drawn) [Compound 29-2, N-((2S)-3-(3-amino-8-azabicyclo[3.2.1]octan-8-yl)-1-(4-chlorophenyl)-1,1-difluoro-3-oxopropan-2-yl)-4-(cyclohexylmethoxy) benzenesulfonamide trifluoroacetate] yielded an IC50 of 1 to 10 µM. Under `NC1CCN(C(=O)[C@@H](NS(=O)(=O)c2ccc(OCC3CCCCC3)cc2)C(F)(F)c2ccc(Cl)cc2)CC1` [Compound 30-1, (R)—N-(3-(4-aminopiperidin-1-yl)-1-(4-chlorophenyl)-1,1-difluoro-3-oxopropan-2-yl)-4-(cyclohexylmethoxy)benzenesulfonamide trifluoroacetate] stands 1 to 10 µM; under `NC1CCN(C(=O)[C@H](NS(=O)(=O)c2ccc(OCC3CCCCC3)cc2)C(F)(F)c2ccc(Cl)cc2)CC1` [Compound 30-2, (S)—N-(3-(4-aminopiperidin-1-yl)-1-(4-chlorophenyl)-1,1-difluoro-3-oxopropan-2-yl)-4-(cyclohexylmethoxy)benzenesulfonamide trifluoroacetate], 10 to 30 µM. In the case of `CC(C)Oc1ccc2cc(S(=O)(=O)N[C@H](C(=O)N3C4CCC3CC(N)C4)C(F)(F)c3ccc(-c4ccccc4)cc3)ccc2c1` (stereo partly drawn) [Compound 31-1, N-((2R)-1-([1,1′-biphenyl]-4-yl)-3-(3-amino-8-azabicyclo[3.2.1]octan-8-yl)-1,1-difluoro-3-oxopropan-2-yl)-6-isopropoxynaphthalene-2-sulfonamide trifluoroacetate] it was 1 to 10 µM; in that of `CC(C)Oc1ccc2cc(S(=O)(=O)N[C@@H](C(=O)N3C4CCC3CC(N)C4)C(F)(F)c3ccc(-c4ccccc4)cc3)ccc2c1` (stereo partly drawn) [Compound 31-2, N-((2S)-1-([1,1′-biphenyl]-4-yl)-3-(3-amino-8-azabicyclo[3.2.1]octan-8-yl)-1,1-difluoro-3-oxopropan-2-yl)-6-isopropoxynaphthalene-2-sulfonamide trifluoroacetate], 10 to 30 µM; in that of `NC1CCN(C(=O)[C@@H](NS(=O)(=O)c2ccc3cc(OC4CCCC4)ccc3c2)C(F)(F)c2ccc(Br)cc2)CC1` [Compound 32-1, (R)—N-(3-(4-aminopiperidin-1-yl)-1-(4-bromophenyl)-1,1-difluoro-3-oxopropan-2-yl)-6-(cyclopentyloxy)naphthalene-2-sulfonamide trifluoroacetate], less than 1 µM. Under `NC1CCN(C(=O)[C@H](NS(=O)(=O)c2ccc3cc(OC4CCCC4)ccc3c2)C(F)(F)c2ccc(Br)cc2)CC1` [Compound 32-2, (S)—N-(3-(4-aminopiperidin-1-yl)-1-(4-bromophenyl)-1,1-difluoro-3-oxopropan-2-yl)-6-(cyclopentyloxy)naphthalene-2-sulfonamide trifluoroacetate] stands 10 to 30 µM. The compound `NC1CC2CCC(C1)N2C(=O)[C@@H](NS(=O)(=O)c1ccc2cc(OC3CCCCC3)ccc2c1)C(F)(F)c1ccc(Br)cc1` (stereo partly drawn) [Compound 33-1, N-((2R)-3-(3-amino-8-azabicyclo[3.2.1]octan-8-yl)-1-(4-bromophenyl)-1,1-difluoro-3-oxopropan-2-yl)-6-(cyclohexyloxy)naphthalene-2-sulfonamide trifluoroacetate] returned an IC50 of less than 1 µM. On to `NC1CC2CCC(C1)N2C(=O)[C@H](NS(=O)(=O)c1ccc2cc(OC3CCCCC3)ccc2c1)C(F)(F)c1ccc(Br)cc1` (stereo partly drawn) [Compound 33-2, N-((2S)-3-(3-amino-8-azabicyclo[3.2.1]octan-8-yl)-1-(4-bromophenyl)-1,1-difluoro-3-oxopropan-2-yl)-6-(cyclohexyloxy)naphthalene-2-sulfonamide trifluoroacetate], for which the half-maximal inhibitory concentration (IC50) was 30 to 100 µM.

Compound `CN([C@H](C(=O)N1C2CCC1CC(N)C2)C(F)(F)c1ccc(Br)cc1)S(=O)(=O)c1ccc2cc(OC3CCCC3)ccc2c1` (stereo partly drawn) [Compound 34-1, N-((2R)-3-(3-amino-8-azabicyclo[3.2.1]octan-8-yl)-1-(4-bromophenyl)-1,1-difluoro-3-oxopropan-2-yl)-6-(cyclopentyloxy)-N-methylnaphthalene-2-sulfonamide trifluoroacetate] had an IC50 of less than 1 µM. Take `CN([C@@H](C(=O)N1C2CCC1CC(N)C2)C(F)(F)c1ccc(Br)cc1)S(=O)(=O)c1ccc2cc(OC3CCCC3)ccc2c1` (stereo partly drawn) [Compound 34-2, N-((2S)-3-(3-amino-8-azabicyclo[3.2.1]octan-8-yl)-1-(4-bromophenyl)-1,1-difluoro-3-oxopropan-2-yl)-6-(cyclopentyloxy)-N-methylnaphthalene-2-sulfonamide trifluoroacetate]: the half-maximal inhibitory concentration (IC50) fell in the range of 30 to 100 µM. Under `NC1CC2CCC(C1)N2C(=O)[C@@H](NS(=O)(=O)c1ccc(OCC2CCCCC2)cc1)C(F)(F)c1ccc(-c2ccccc2)cc1` (stereo partly drawn) [Compound 35-1, N-((2R)-1-([1,1′-biphenyl]-4-yl)-3-(3-amino-8-azabicyclo[3.2.1]octan-8-yl)-1,1-difluoro-3-oxopropan-2-yl)-4-(cyclohexylmethoxy)benzenesulfonamide trifluoroacetate] stands less than 1 µM.
